Assay results as given in patent US20160095865A1, “APPLICATION OF ENROFLOXACIN SALT IN PREPARATION OF ORAL PREPARATION FOR PIGS” (GUANGZHOU INSIGHTER BIOTECHNOLOGY CO., LTD., priority 2013, published 2016).
Where a name gives a salt, the structure may show the parent alone.

Columns and labels:
[1] = system: duroc-landrace-yorkshire hybrid pigs; test: Influence of enrofloxacin base, sodium salt and hydrochloride on palatability of pig feed (Embodiment 2); format: in vivo; settings: compared with blank control group
Procedure: Enrofloxacin base, enrofloxacin sodium and enrofloxacin hydrochloride were respectively added in feed in each group. All the test pigs were synchronously fasted for 12 h before testing. The test pigs in each group were respectively subjected to free feed intake of feed containing enrofloxacin in different forms after the 12 h fast. […] Feed consumption of different test groups was subjected to statistics and the influence of different forms of the enrofloxacin added in the feed on the feed intake of the pigs was evaluated. The pure feed which was not added with the enrofloxacin or the salt thereof was taken as control.

[2] = system: pathogenic escherichia coli SGD strain; test: Protection against escherichia coli artificial (challenge) infection in weaned piglets (Embodiment 9); format: in vivo, pigs; settings: for Death rate: challenged control 60; for Incidence rate (%, calculated by diarrhea): challenged control 100
Procedure: The 33-day-old pigs were intramuscularly injected with pathogenic escherichia coli, the diarrhea and deaths of the pigs were observed, continuous observation was performed for one week, the onset and deaths were subjected to statistics, and the protection effects of the enrofloxacin in different forms against the pathogenic escherichia coli in the artificial infection were compared. Pure feed which was not added with the enrofloxacin in any form was taken as a control group, wherein one portion of pigs in the control group were intramuscularly injected with the pathogenic escherichia coli and was taken as the control group without administration but with challenge (the fifth group), and the remainder were not intramuscularly injected with the pathogenic escherichia coli and was taken as the control group without administration and without challenge (the sixth group).

sensitive bacteria = settings: overwhelming majority of strains of sensitive bacteria; cited from earlier work
[3] = Pharmacokinetic research in pigs, plasma concentration by HPLC (Embodiment 8); format: in vivo; settings: piglets
Procedure: Jugular venous blood collection was performed at 30 min, 1 h, 2 h, 4 h, 8 h, 12 h and 24 h after administration. Plasma was separated, the concentration of the enrofloxacin in the plasma in the different test pigs after administration was determined by high-performance liquid chromatography respectively, and whether the difference in the concentration of the enrofloxacin in the plasma in each test group after administration was significant or not and whether the elimination rule of the enrofloxacin in blood was consistent or not was subjected to statistical analysis.

[4] = 100 ppm equivalent fed twice daily through a gastric tube according to feed intake, challenge 2.0 ×10^7 CFU/pig
[5] = 100 ppm in feed, challenge 2.0 ×10^7 CFU/pig i.m., one week

**Q.** Which “Decline in feed intake” value ([1]; 5 ppm in feed) does the source give for `CCN1CCN(c2cc3c(cc2F)c(=O)c(C(=O)O)cn3C2CC2)CC1` [enrofloxacin base, enrofloxacin] here?
**A.** The value was 47.2%.

**Q.** What about the “Decline in feed intake” value ([1]; 25 ppm in feed) of the same compound?
**A.** The value was 74.2%.

**Q.** And the “Decline in feed intake” value ([1]; 100 ppm in feed)?
**A.** Its value is 93.3%.

**Q.** What about the Death rate [2, 4] of the same compound?
**A.** Its Death rate is 0%.

**Q.** And the “Incidence rate (%, calculated by diarrhea)” value [2, 4]?
**A.** Its value is 0%.

**Q.** What about the MIC (sensitive bacteria) of the same compound?
**A.** The MIC was “lower than 1 ug/ml”.

**Q.** Which results are given for `CCN1CCN(c2cc3c(cc2F)c(=O)c(C(=O)[O-])cn3C2CC2)CC1.CCN1CCN(c2cc3c(cc2F)c(=O)c(C(=O)[O-])cn3C2CC2)CC1.[Zn+2]` [enrofloxacin zinc]?
**A.** Death rate [2, 5]: 0%; Incidence rate (%, calculated by diarrhea) [2, 5]: 0%

**Q.** Which “Plasma concentration (total of enrofloxacin and ciprofloxacin)” value (“Plasma concentration” below) ([3]; 30 min after 10 mg/kg body weight by gastric tube) does the source give for `CCN1CCN(c2cc3c(cc2F)c(=O)c(C(=O)[O-])cn3C2CC2)CC1.CCN1CCN(c2cc3c(cc2F)c(=O)c(C(=O)[O-])cn3C2CC2)CC1.[Cu+2]` [enrofloxacin copper] here?
**A.** Its value is 1.417 ± 0.169^A ug/ml.

**Q.** And the “Plasma concentration” value ([3]; 1 h after 10 mg/kg body weight by gastric tube)?
**A.** The value was 2.121 ± 0.198^B ug/ml.

**Q.** What about the “Plasma concentration” value ([3]; 2 h after 10 mg/kg body weight by gastric tube) of the same compound?
**A.** Its value is 5.187 ± 0.558^C ug/ml.

**Q.** What about the “Plasma concentration” value ([3]; 4 h after 10 mg/kg body weight by gastric tube) of the same compound?
**A.** Its value is 5.465 ± 0.529^D ug/ml.

**Q.** And the “Plasma concentration” value ([3]; 8 h after 10 mg/kg body weight by gastric tube)?
**A.** Its value is 2.986 ± 0.234^E ug/ml.

**Q.** What about the “Plasma concentration” value ([3]; 12 h after 10 mg/kg body weight by gastric tube) of the same compound?
**A.** Its value is 1.785 ± 0.215^F ug/ml.

**Q.** And the “Plasma concentration” value ([3]; 24 h after 10 mg/kg body weight by gastric tube)?
**A.** Its value is 0.294 ± 0.044^G ug/ml.

**Q.** And the Death rate [2, 5]?
**A.** Its Death rate is 0%.

**Q.** What about the “Incidence rate (%, calculated by diarrhea)” value [2, 5] of the same compound?
**A.** The value was 0%.

**Q.** For `CCN1CCN(c2cc3c(cc2F)c(=O)c(C(=O)[O-])cn3C2CC2)CC1.[Ag+]` [enrofloxacin silver], which Death rate [2, 5] is on record?
**A.** Its Death rate is 0%.

**Q.** What about the “Incidence rate (%, calculated by diarrhea)” value [2, 5] of the same compound?
**A.** Its value is 0%.

**Q.** With `CCN1CCN(c2cc3c(cc2F)c(=O)c(C(=O)O)cn3C2CC2)CC1` [enrofloxacin hydrochloride] as the compound, how does the “Decline in feed intake” value ([1]; 5 ppm in feed, hydrochloride) read?
**A.** Its value is 49.5%.

**Q.** What about the “Decline in feed intake” value ([1]; 25 ppm in feed, hydrochloride) of the same compound?
**A.** Its value is 73.4%.

**Q.** And the “Decline in feed intake” value ([1]; 100 ppm in feed, hydrochloride)?
**A.** The value was 93.7%.

**Q.** With `CCN1CCN(c2cc3c(cc2F)c(=O)c(C(=O)O)cn3C2CC2)CC1` [enrofloxacin sodium] as the compound, how does the “Decline in feed intake” value ([1]; 5 ppm in feed) read?
**A.** The value was 50.8%.

**Q.** What about the “Decline in feed intake” value ([1]; 25 ppm in feed) of the same compound?
**A.** The value was 73.1%.

**Q.** And the “Decline in feed intake” value ([1]; 100 ppm in feed)?
**A.** Its value is 94.1%.
